Laboratory results reported in patent US20240315994A1, “SMALL MOLECULE MODULATORS OF FERROPTOSIS” (ARPEGGIO BIOSCIENCES, INC., priority 2021, published 2024).

These compounds were tested against T1, recombinant GPX4 protein (Homo sapiens, UniProt P36969) (assay: GPX4 inhibitor screening assay (Cayman Chemical cat #701880)). Settings: 25 μM, one hour incubation with recombinant GPX4.
T1 construct: purchased Cayman Chemical SO960203
T1 sequence (P36969 1-197): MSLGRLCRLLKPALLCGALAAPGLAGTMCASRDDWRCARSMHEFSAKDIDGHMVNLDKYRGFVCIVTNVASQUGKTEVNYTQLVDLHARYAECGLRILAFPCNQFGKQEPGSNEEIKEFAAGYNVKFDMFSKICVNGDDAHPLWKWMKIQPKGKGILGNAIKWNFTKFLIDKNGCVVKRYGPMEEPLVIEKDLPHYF
Type: biochemical
Protocol: To determine whether the five ferroptosis-inducing compounds (1816, 8216, 3362, 1962, and 0973) inhibit GPX4 enzymatic activity in vitro, we used a commercially available GPX4 inhibitor screening kit (Cayman Chemical cat #701880). This assay measures a compound's ability to prevent cumene hydroperoxide reduction by recombinant GPX4 protein. Briefly, the five ferroptosis-inducing compounds (25 μM) were incubated with recombinant GPX4 protein for one hour before being run in the Cayman Chemicals GPX4 inhibitor screening assay according to manufacturer's recommendations. The assay read out is a change in absorbance between NADPH and NADP. ML162 (25 μM) and RSL3 (25 μM) were used as positive control compounds.
An enzymatic assay that measures the reduction of […] by GPX4 was used to test the ability of compounds 8216, 6666, 8147, and 3793 to inhibit the activity of GPX4. The enzymatic assay was performed using a commercially available kit (Cayman cat #701880). The compounds were tested at 8 concentrations in duplicate with the compound being diluted following manufacturer's instructions. The enzymatic reaction was allowed to continue for 1 hour prior to reading out the kinetic shift in absorbance that occurs as result of GPX4 […].

| SMILES | GPX4 inhibitory capacity in vitro |
| --- | --- |
| O=C(CCl)N1c2ccccc2SCC1c1ccccc1 (stereo not shown) [Compound 0973] | do not inhibit GPX4 enzymatic activity in vitro |

These compounds were tested on HT-1080 fibrosarcoma cells (assay: HT-1080 single-concentration cell viability screen (Cell Titer Glo)). Settings: 10 μM compound, 48 hours, duplicate, fraction of control.
Type: cell-based
Source text: To identify potential covalent inhibitors of GPX4, we screened a panel of 294 diverse small molecules from the Enamine covalent inhibitor library (Catalog No. CSL-10480-0-Z-10, Enamine, Monmouth, NJ). Each compound contains either a chloroacetamide or acrylamide moiety theoretically capable of forming a covalent bond with a selenocysteine. The small molecule compounds were selected for a diversity of backbone structures. The screening protocol used the cell viability assay Cell Titer Glo® (available from Promega, Madison, WI). Cell Titer Glo® is a luminescent cell viability that determines the number of viable cells in culture by quantifying ATP, which indicates the presence of metabolically active cells. Briefly, HT-1080 fibrosarcoma cells were plated 24 hours prior to treatment with 10 µM of each compound in the screening panel. Cell Titer Glo® was used to read out cell viability after 48 hours of compound exposure. Data was collected in duplicate.
To determine whether similar molecules could offer other starting points for a medicinal chemistry campaign, we screened 95 additional compounds that contain a similar base structure to that of 8216. Briefly, HT-1080 fibrosarcoma cells were treated with 10 µM of a compound for 48 hours and cell viability was measured by Cell Titer Glo®. Data was collected in duplicate. […]

| SMILES | Average relative cell viability |
| --- | --- |
| N#Cc1ccc(CN(C(=O)CCl)C2CC2)c(F)c1 [Compound Z3952175125] | 0.8876 |
| O=C(CCl)N(Cc1cc(F)ccc1F)CC1CCOCC1 [Compound Z3837255186] | 0.1331 |
| O=C(CCl)N(Cc1noc2c1CCCC2)c1ccccc1F [Compound Z4323314193] | 0.00483 |
| O=C(CCl)N(Cc1ccccc1)Cc1ccco1 [Compound Z108565162] | 0.005394 |
| O=C(CCl)N(Cc1cccs1)CC1CCCO1 (stereo not shown) [Compound Z147647920] | 0.04392 |
| O=C(CCl)N(Cc1ccco1)C1=CCCCC1 [Compound Z89264994] | 0.01228 |
| O=C(CCl)N(Cc1ccc2c(c1)OCCO2)Cc1ncoc1C1CCC1 [Compound Z4425210448] | 0.00756 |
| COc1nc2ccc(CN(Cc3ccc(F)cc3)C(=O)CCl)cc2s1 [Compound Z4425210756] | 0.00393 |
| COC1(CN(Cc2ccn(C)n2)C(=O)CCl)CCCCC1 [Compound Z3837644318] | 0.7407 |
| Cc1ccc(CN(Cc2cnn(C)c2)C(=O)CCl)cc1C [Compound Z3837366035] | 0.531 |
| O=C(CCN(Cc1ccc2c(c1)CCOC2)C(=O)CCl)NC1CCCC1 [Compound Z4425210882] | 0.1465 |
| Cc1cc(CN(C(=O)CCl)c2ccc(F)cc2)nn1C [Compound Z3837055210] | 0.001584 |
| O=C(CCl)N(Cc1ccc(F)cc1)c1nc(-c2ccccc2)cs1 [Compound Z147647938] | 0.000936 |
| COc1ccc2nc(CN(Cc3ccc(F)cc3)C(=O)CCl)sc2c1 [Compound Z4425210755] | 0.002562 |
| O=C(CCl)N(Cc1ccccc1)CC1(O)CCOC1 (stereo not shown) [Compound Z1687602192] | 0.1445 |
| O=C(CCl)N(Cc1ccc2c(c1)CCC2)CC1(CCO)CC1 [Compound Z4323486432] | 0.004428 |
| O=C(CCl)N(Cc1cnn(-c2ccccc2)c1)C1CC1 [Compound Z3629871044] | 0.001764 |
| O=C(CCl)N(Cc1nc2ccsc2c(=O)[nH]1)C1CC1 [Compound Z3217399415] | 1.255 |
| O=C(CCl)N(Cc1ccco1)C1CCS(=O)(=O)C1 (stereo not shown) [Compound Z147652330] | 0.7459 |
| Cc1csc(CN(C(=O)CCl)c2cccc(F)c2C)n1 [Compound Z3837197646] | 0.01316 |
| CN(Cc1cnc(N(C)C)nc1)C(=O)CCl [Compound Z2596884436] | 0.4026 |
| Cn1ccc(N(Cc2ccccc2)C(=O)CCl)n1 [Compound Z4170009630] | 0.08916 |
| O=C(CCl)N(Cc1ccccc1O)Cc1ccccc1O [Compound Z3952174992] | 0.1517 |
| CCn1cc(CN(C(=O)CCl)C2CC2)c(C)n1 [Compound Z3887631385] | 0.7938 |
| Cc1ccc2sc(N(Cc3ccccc3)C(=O)CCl)nc2c1C [Compound Z147647684] | 0.006576 |
| O=C(CCl)N(Cc1ccccc1)c1nc2c(s1)CCCC2 [Compound Z147647668] | 0.005838 |

The compounds below were run on HT-1080 fibrosarcoma cells (assay: HT-1080 viability dose response in presence or absence of ferrostatin-1 or liproxstatin-1). Settings: HT-1080 cells, 100 μM to 100 nM, 48 hours, with/without 1.5 μM ferrostatin-1.
Type: cell-based
Protocol: To determine whether the reduction in cell viability by the compounds identified in FIG. 1 is driven by induction of ferroptosis, we performed dose response curves for each compound in the presence or absence of ferrostatin-1 or liproxstatin-1, which prevent ferroptosis by functioning as radical trapping antioxidants at cellular membranes. Briefly, HT-1080 fibrosarcoma cells were plated 24 hours prior to treatment with a range of concentrations of each inhibitor compound ranging from 100 μM to 100 nM in the presence or absence of 1 μM liproxstatin-1 or 1.5 µM ferrostatin-1. Cell Titer Glo® was used to read out cell viability after 48 hours compound exposure. Data was collected in triplicate.
Compounds from the Enamine covalent inhibitor library with similar structures to compounds 8216, 6666 or 1816 were further screened for inducing cell death via ferroptosis. Briefly, HT-1080 fibrosarcoma cells were plated on black-sided clear bottom plates 24 hours prior to treatment, with or without the addition of 2× ferrostatin-1, which inhibits the process of ferroptosis and rescues cells from undergoing this form of cell death. Compounds were diluted in DMSO and media then added to the cells for a total of 24 hours at which point cell viability was read out via Cell Titer Glo. Compounds were tested at […] ranging from 50 μM to 5 nM at half log dilutions.
FIG. 14 is a panel of plots 1400 showing relative viability of HT-1080 fibrosarcoma cells exposed to 15 inhibitor compounds with similar structures to 8216, 6666, or 1816 tested over a range of concentrations from 50 μM to 5 nM at half log dilutions in the presence of (red line) and absence of (black line) 1.5 μM ferrostatin-1. Ferrostatin-1 is a lipophilic antioxidant which inhibits the process of ferroptosis and rescues cells from undergoing this form of cell death. The black line is the relative HT-1080 fibrosarcoma cell viability in the absence of ferrostatin-1 and the red line is the relative HT-1080 fibrosarcoma cell viability in the presence of 1.5 μM ferrostatin-1. HT-1080 fibrosarcoma cells were plated on side-blackened, clear bottom plates 24 hours prior to treatment, with or without the addition of 2× ferrostatin-1. Each compound was diluted in DMSO and media and then added to the cells for a total of 24 hours, at which point cell viability was read out via Cell Titer Glo.

| SMILES | cell death and rescue by ferrostatin-1 |
| --- | --- |
| O=C(CCl)N1c2ccccc2SCC1c1ccccc1 (stereo not shown) [Compound 0973] | cell death that was rescued by the addition of the antioxidant ferrostatin-1 |

What follows are compounds tested on 786-O Renal Clear Cell Carcinoma cells (assay: Bodipy-C11 lipid peroxidation staining in 786-O cells). Settings: 8216 6.25 μM 2 h, 1816 25 μM 1 h, 3362 12.5 μM 2 h, 0973 50 μM 2 h, 1962 50 μM 2 h.
Type: cell-based
Protocol: To validate that the five ferroptosis-inducing compounds identified in FIG. 3 do cause lipid peroxidation, we used Bodipy-C11 staining in 786-O Renal Clear Cell Carcinoma cells to visualize using microscopy the presence (or absence) of oxidized lipids. Biodipy-C11 is a dye that traffics to lipid membranes and harbors a fluorophore that emits at different wavelengths depending on its oxidation status. Briefly, 786-O Renal Clear Cell Carcinoma cells were plated 24 hours prior to treatment with each of the five ferroptosis-inducing compounds (8216, 1816, 3362, 1962, and 0973) for one or two hours. DMSO was used as a control treatment. Following the treatment period, Hoechst stain (10 μM; a nuclear counterstain) and Bodipy-C11 (200 μM) were added to the cells for 30 minutes and then the cells were imaged using the Opera Phenix high content screening microscope.
FIG. 4B is a panel of plots 410 showing fluorescence images of Biodipy-C11 staining of cells treated with compound 8216 and the controls RSL3 and sodium arsenite. Briefly, 786-O Renal Clear Cell Carcinoma cells were plated 24 hours prior to treatment with compound 8216 and the controls RSL3 and sodium arsenite for 1 hour with and without 1.5 μM of ferrostatin-1. Bodipy C-11 undergoes a shift in emission when lipids become oxidized, non-oxidized lipids are represented in orange and oxidized lipids are green; Hoescht was included as nuclear stain to represent cell bodies.

| SMILES | lipid peroxidation (Bodipy-C11 staining) |
| --- | --- |
| O=C(CCl)N1c2ccccc2SCC1c1ccccc1 (stereo not shown) [Compound 0973] | some degree of lipid peroxidation was observed |

What follows are compounds tested against T1, recombinant GPX4 protein (assay: Intact protein mass spectrometry binding to recombinant GPX4). Settings: intact protein mass spectrometry, 2 hours incubation.
Source text: To determine whether the five ferroptosis-inducing compounds identified in FIG. 3 and FIG. 4 could function through direct binding and inhibition of GPX4, we tested binding of each compound to recombinant GPX4 protein in vitro by intact protein mass spectrometry. Intact mass analysis is the assessment of a protein's total molecular weight by mass spectrometry without prior digestion or fragmentation of the molecule of interest. Covalent binding of a potential inhibitor to GPX4 can be detected by a shift in the mass of the intact protein. For the intact protein analysis, we used ML162, a well-characterized GPX4 inhibitor (available from Sigma Aldrich), as a positive control. […] Briefly, compounds were incubated with recombinant GPX4 protein in vitro for 2 hours before quenching with trifluoroacetic acid (TFA) and analysis by mass spectroscopy.
To determine whether the ferroptosis-inducing compounds 6666 and 8147 could function through direct binding and inhibition of GPX4, we tested binding of each compound to recombinant GPX4 protein in vitro by intact protein mass spectrometry. Compound 8216 was used as a positive control (see FIG. 6). Briefly, 15 μL of GPX4 protein (Cayman Chemical cat #SO960203]) was incubated with 100 µM of each compound ([…]) and diluted with 25.5 μl of PBS. The incubation was performed at room temperature for 2 hours and then the reaction was quenched with 3 μL of trifluoroacetic acid. Samples were subjected to UPLC coupled to Synapt G2 mass spectrometer to evaluate if binding of the test compound to GPX4 occurs. Binding is evident by a mass shift equivalent to the mass size of the compound minus a chlorine atom plus the mass size of the GPX4 protein, as described by the manufacturer.

| binding to recombinant GPX4 in vitro | number of binding events / sites on GPX4 (mass shifts) | SMILES |
| --- | --- | --- |
| capable of binding GPX4 | display a single mass shift | O=C(CCl)N1c2ccccc2SCC1c1ccccc1 (stereo not shown) [Compound 0973] |
